Source: patent US7390789B2, “Thio-containing inhibitors of aminopeptidase P, and compositions thereof” (priority 2005, dated 2008)
Where two headings read alike, the source gives them in different places. One block for each compound: values may come before it.

Key:
[1] = test system: bradykinin degradation; settings: isolated perfused rat heart and lung; cited from earlier work
[2] = test system: bradykinin vasodepressor response; settings: cited from earlier work
[3] = test system: blood pressure; settings: rat model of severe hypertension; cited from earlier work
[4] = test system: isolated perfused heart; settings: cited from earlier work
[5] = test system: myocardial infarct size; settings: intact rats subjected to regional cardiac ischemia; cited from earlier work
[6] = test system: aminopeptidase P; settings: cited from earlier work
[7] = target: T1, rat membrane aminopeptidase P (Rattus norvegicus, UniProt Q99MA2); experiment: Inhibition of purified rat membrane aminopeptidase P with Arg-Pro-Pro substrate; format: biochemical
T1 sequence (Q99MA2 23-650): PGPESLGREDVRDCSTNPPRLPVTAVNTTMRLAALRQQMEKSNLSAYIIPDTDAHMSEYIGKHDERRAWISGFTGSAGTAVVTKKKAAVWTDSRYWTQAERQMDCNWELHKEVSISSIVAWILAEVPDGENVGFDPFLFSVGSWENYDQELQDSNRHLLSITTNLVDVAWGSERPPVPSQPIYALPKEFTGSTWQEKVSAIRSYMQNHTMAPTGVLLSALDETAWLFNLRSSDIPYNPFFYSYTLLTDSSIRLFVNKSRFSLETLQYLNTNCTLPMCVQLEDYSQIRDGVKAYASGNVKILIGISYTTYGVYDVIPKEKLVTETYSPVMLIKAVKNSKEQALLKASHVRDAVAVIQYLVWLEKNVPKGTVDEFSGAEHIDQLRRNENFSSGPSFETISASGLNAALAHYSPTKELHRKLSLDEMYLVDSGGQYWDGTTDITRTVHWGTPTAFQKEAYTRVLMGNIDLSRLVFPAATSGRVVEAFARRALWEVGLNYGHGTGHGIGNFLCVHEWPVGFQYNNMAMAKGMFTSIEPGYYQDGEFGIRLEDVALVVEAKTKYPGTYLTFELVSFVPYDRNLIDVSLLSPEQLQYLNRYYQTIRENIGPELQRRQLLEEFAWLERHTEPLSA
Description: The IC50 for each of compounds IV-VIII was determined as the concentration in nmoles/liter (nM) required to inhibit rat membrane aminopeptidase P by 50% using Arg-Pro-Pro (0.5 mM) as the substrate. […] See Maggiora et al.,

[8] = purified rat membrane aminopeptidase P, Arg-Pro-Pro (0.5 mM) as the substrate, read-out: Binding affinity (IC50 in nanomolar)

SMILES: C[C@H](NC(=O)[C@@H]1CCCN1C(=O)[C@@H]1CCCN1C(=O)[C@@H](O)[C@H](N)Cc1ccccc1)C(N)=O [apstatin]
bradykinin degradation [1]: reduce bradykinin degradation
effect on blood pressure-lowering effects of intravenously administered bradykinin ([2]; rat, in vivo, iv): enhanced
dose at which bradykinin potentiation has been observed ([2]; rats, intravenously, administered over a one hour period): 0.08 to 0.8 mg/kg
blood pressure reduction with an ACE inhibitor [3]: acted synergistically with an ACE inhibitor to reduce blood pressure to normal
reduction of reperfusion-induced ventricular fibrillation [4]: by a similar amount
reduction of cardiac damage ([4]; heart attack model): 74%
myocardial infarct size [5]: substantially reduced myocardial infarct size
potency [6]: micromolar

SMILES: CCCCC(S)C(=O)N1CCCC1C(=O)N1CCCC1C(=O)NC(C)C(N)=O [Analog 2, N-[(R)-2-mercaptohexanoyl]-Pro-Pro-Ala-NH2]
IC50 [7, 8]: 130 nM

SMILES: CCCCC(S)C(=O)N1CCCC1C(=O)N1C(C)CCC1C(=O)NC(C)C(N)=O [Analog 3, N-[(R)-2-mercaptohexanoyl]-Pro-MePro-Ala-NH2]
IC50 [7, 8]: 170 nM

SMILES: CC(NC(=O)C1CCCN1C(=O)C1CCCN1C(=O)CS)C(N)=O (stereo not drawn) [Analog 1, N-mercaptoacetyl-Pro-Pro-Ala-NH2]
IC50 ([7]; rat mAPP, read-out: IC50): 3400 nM

The remaining lines, values ahead:

IC50 [7, 8]: 87 nM
SMILES: O=C(O)CCNC(=O)[C@@H]1CCCN1C(=O)[C@@H]1CCCN1C(=O)[C@@H](S)C1CCCCC1 [Analog 4, N-[(S)-2-mercapto-2-cyclohexylacetyl]-Pro-Pro-β-Ala-OH]

IC50 [7, 8]: 10 nM
SMILES: CCC(C)C(S)C(=O)N1CCCC1C(=O)N1CCCC1C(=O)NC(C)C(N)=O [Analog 5, N-[(2S, 3S)-2-mercapto-3-methylpentanoyl]-Pro-Pro-Ala-NH2]
